Like-named read-outs stand apart in the source and are kept apart here.
How the values were obtained:
[1] = tested on: caterpillars of the army worm (Spodoptera frugiperda); assay: Spodoptera frugiperda test; assay type: in vivo; conditions: 168 h, 100 ppm active compound, cabbage leaves (Brassica oleracea) dipped, after 7 d, read-out: Kill rate in % after 7 d
Protocol: (§1) Spodoptera frugiperda Test • Solvent: 7 parts by weight of dimethylformamide • Emulsifier: 2 parts by weight of alkylaryl polyglycol ether To produce a suitable preparation of active compound, 1 part by weight of active compound is mixed with the stated amounts of solvent and emulsifier, and the concentrate is diluted with emulsifier-containing water to the desired concentration. Cabbage leaves (Brassica oleracea) are treated by being dipped into the preparation of active compound of the desired concentration and are populated with caterpillars of the army worm (Spodoptera frugiperda) while the leaves are still moist. After the desired period of time, the kill in % is determined. 100% means that all caterpillars have been killed; 0% means that none of the caterpillars have been killed. In this test, for example, the following compounds of the preparation examples show good activity: […]

[2] = tested on: larvae of the mustard beetle (Phaedon cochleariae); assay: Phaedon larvae test; assay type: in vivo; conditions: 168 h, 100 ppm active compound, cabbage leaves (Brassica oleracea) dipped, after 7 d, read-out: Kill rate in % after 7 d
Protocol: as §1, with “Phaedon Larvae Test” for “Spodoptera frugiperda Test”, “with larvae” for “with caterpillars”, “the mustard beetle (Phaedon cochleariae)” for “the army worm (Spodoptera frugiperda)”, “all beetle larvae” for “all caterpillars”, “the beetle larvae” for “the caterpillars”

[3] = log P determination by HPLC on reversed-phase column (EEC Directive 79/831 Annex V.A8); assay type: physicochemical
Protocol: The log P values given in the preparation examples and tables above are determined in accordance with EEC Directive 79/831 Annex V.A8 by HPLC (High Performance Liquid Chromatography) on a reversed-phase column (C 18). Temperature: 43° C. In the acidic range, determination is carried out at pH 2.3 using the mobile phases 0.1% aqueous phosphoric acid and acetonitrile; linear gradient from 10% acetonitrile to 90% acetonitrile (in the tables marked with a)). In the neutral range, determination is carried out at pH 7.5 using the mobile phases 0.01 molar aqueous phosphate buffer solution and acetonitrile; linear gradient from 10% acetonitrile to 90% acetonitrile (in the tables marked with b)). Calibration is carried out using unbranched alkan-2-ones (of 3 to 16 carbon atoms) with known lopP values (determination of the log P values by the retention times using linear interpolation between two successive alkanones).

[4] = tested on: greenhouse red spider mite (Tetranychus urticae); assay: Tetranychus test (OP-resistant/dip treatment); assay type: in vivo; conditions: 168 h, 100 ppm active compound, infested bean plants (Phaseolus vulgaris) dipped, OP-resistant, after 7 d, read-out: Kill rate in % after 7 d
Protocol: Tetranychus Test (OP-Resistant/Dip Treatment)
• Solvent: 7 parts by weight of dimethylformamide • Emulsifier: 2 parts by weight of alkylaryl polyglycol ether
To produce a suitable preparation of active compound, 1 part by weight of active compound is mixed with the stated amounts of solvent and emulsifier, and the concentrate is diluted with emulsifier-containing water to the desired concentration.
Bean plants (Phaseolus vulgaris) which are heavily infested by all stages of the greenhouse red spider mite (Tetranychus urticae) are treated by being dipped into a preparation of active compound of the desired concentration.
After the desired period of time, the activity in % is determined. 100% means that all spider mites have been killed; 0% means that none of the spider mites have been killed.
In this test, for example, the following compounds of the preparation examples show good efficacy: […]

[5] = tested on: caterpillars of the cotton bollworm (Heliothis armigera); assay: Heliothis armigera test; assay type: in vivo; conditions: Helicoverpa armigera, 168 h; 100 ppm active compound; soybean shoots (Glycine max) dipped; after 7 d; read-out: Kill rate in % after 7 d
Protocol: as §1, with “Heliothis armigera” for “Spodoptera frugiperda”, “Soybean shoots (Glycine max)” for “Cabbage leaves (Brassica oleracea)”, “cotton bollworm (Heliothis armigera)” for “army worm (Spodoptera frugiperda)”

[6] = tested on: caterpillars of the diamondback moth (Plutella xylostella); assay: Plutella test; assay type: in vivo; conditions: 100 ppm active compound, cabbage leaves (Brassica oleracea) dipped
Protocol: as §1, with “Plutella” for “Spodoptera frugiperda”, “diamondback moth (Plutella xylostella)” for “army worm (Spodoptera frugiperda)”

[7] = tested on: caterpillars of the army worm (Spodoptera exigua); assay: Spodoptera exigua test; assay type: in vivo; conditions: 100 ppm active compound, cabbage leaves (Brassica oleracea) dipped
Protocol: as §1, with “exigua” for “frugiperda”, “exigua)” for “frugiperda)”

[8] = reversed-phase C18 HPLC column; acidic range, pH 2.3, 0.1% aqueous phosphoric acid/acetonitrile, 43° C.; marked a) in tables, read-out: log P (pH 2.3)
[9] = reversed-phase C18 HPLC column; neutral range, pH 7.5, 0.01 molar aqueous phosphate buffer/acetonitrile, 43° C.; marked b) in tables, read-out: log P (pH 7.5)

SMILES | pest or weed control at 100 ppm [1] | pest or weed control at 100 ppm [2] | chromatographic logP [3, 8] | pest or weed control at 100 ppm [4] | pest or weed control at 100 ppm [5] | chromatographic logP [3, 9] | Kill rate in % after 7 d [6] | Kill rate in after 7 d [7]
CCOC(=O)[C@H]1CC(c2c(F)cccc2F)=N[C@H]1c1ccc(-c2ccc(-c3noc(C(F)(F)F)n3)cc2)cc1 (racemic) [Example 8] | 100% | 100% | 5.18 | 95% | 100% | – | – | –
CCOC(=O)[C@H]1CC(c2c(F)cccc2F)=N[C@H]1c1ccc(-c2ccc(-c3noc(C(C)(C)C)n3)cc2)cc1 (racemic) [Example 9] | 100% | 100% | 5.29 | – | 100% | – | – | –
CCOC(=O)[C@H]1CC(c2c(F)cccc2F)=N[C@H]1c1ccc(-c2ccc(-c3nc(C(C)(C)C)no3)cc2)cc1 (racemic) [Example 10] | 100% | 100% | 5.39 | – | 100% | – | – | –
Cc1ccccc1C1=NC(c2ccc(Br)cc2)CC1 (centres unmarked) [2-(4-bromophenyl)-5-(2-methylphenyl)-3,4-dihydro-2H-pyrrole] | – | – | 1.82 | – | – | 4.48 | – | –
O=C(/C=C/c1ccc(Br)cc1F)c1c(F)cccc1F [(2E)-3-(4-bromo-2-fluorophenyl)-1-(2,6-difluoro-phenyl)-2-propen-1-one] | – | – | 4.18 | – | – | – | – | –
CCOc1ccc(-c2ccc(-c3ccc(C4CCC(c5c(F)cccc5F)=N4)cc3)cc2)s1 (centres unmarked) [Example 1, 5-(2,6-difluorophenyl)-2-[4′-(5-ethoxy-2-thienyl)-1,1′-biphenyl-4-yl]-3,4-dihydro-2H-pyrrole] | 100% | 100% | 4.88 | 95% | 100% | 5.84 | 100% | –
COc1ccc(-c2ccc(-c3ccc(C4CCC(c5c(F)cccc5F)=N4)cc3)cc2)s1 (centres unmarked) [Example 2, 5-(2,6-difluorophenyl)-2-[4′-(5-methoxy-2-thienyl)-1,1′-biphenyl-4-yl]-3,4-dihydro-2H-pyrrole] | 100% | 100% | 4.35 | – | 100% | – | – | –
CC(C)Oc1ccc(-c2ccc(-c3ccc(C4CCC(c5c(F)cccc5F)=N4)cc3)cc2)s1 (centres unmarked) [Example 3, 5-(2,6-difluorophenyl)-2-[4′-(5-isopropoxy-2-thienyl)-1,1′-biphenyl-4-yl]-3,4-dihydro-2H-pyrrole] | 100% | 100% | 5.2 | – | 100% | – | – | –
Cc1ccccc1C1=NC(c2ccc(-c3ccc(-c4noc(C(F)(F)F)n4)cc3)cc2)CC1 (centres unmarked) [Example 4, 3-{4′-[5-(2-methylphenyl)-3,4-dihydro-2H-pyrrol-2-yl]-1,1′-biphenyl-4-yl}-5-(trifluoromethyl)-1,2,4-oxadiazole] | 100% | 100% | 3.32 | 95% | 100% | – | – | –
CC(C)(C)c1noc(-c2ccc(-c3ccc(C4CCC(c5c(F)cccc5F)=N4)c(F)c3)cc2)n1 (centres unmarked) [Example 5, 3-tert-butyl-5-{4′-[5-(2,6-difluorophenyl)-3,4-dihydro-2H-pyrrol-2-yl]-3′-fluoro-1,1′-biphenyl-4-yl}-1,2,4-oxadiazole] | 100% | 100% | 5.79 | 98% | 100% | 6.06 | 100% | 100%
Cc1ccccc1C1=NC(c2ccc(-c3ccc(-c4noc(C(C)(C)C)n4)cc3)cc2)CC1 (centres unmarked) [Example 11] | 100% | 100% | 3.99 | 98% | 100% | – | – | –
Cc1ccccc1C1=NC(c2ccc(-c3ccc(-c4nc(C(C)(C)C)no4)cc3)cc2)CC1 (centres unmarked) [Example 12] | 100% | 100% | 4.18 | 98% | 100% | – | – | –
N#Cc1cnn(-c2ccc(-c3ccc(C4CCC(c5c(F)cccc5F)=N4)cc3)cc2)c1 (centres unmarked) [Example 18] | 100% | 100% | 3.02 | 90% | – | 4.03 | – | –
Cc1nc(-c2ccc(-c3ccc(C4CCC(c5c(F)cccc5F)=N4)cc3)cc2)cs1 (centres unmarked) [Example 22] | 100% | – | 3.35 | 90% | 100% | 4.68 | 100% | –
Cc1ccccc1C1=NC(c2ccc(B3OC(C)(C)C(C)(C)O3)cc2)CC1 (centres unmarked) [II-1, 5-(2-methylphenyl)-2-[4-(4,4,5,5-tetramethyl-1,3,2-dioxaborolan-2-yl)phenyl]-3,4-dihydro-2H-pyrrole] | – | – | 2.25 | – | – | 4.98 | – | –
CC1(C)OB(c2ccc(C3CCC(c4c(F)cccc4F)=N3)c(F)c2)OC1(C)C (centres unmarked) [II-2, 5-(2,6-difluorophenyl)-2-[2-fluoro-4-(4,4,5,5-tetramethyl-1,3,2-dioxaborolan-2-yl)phenyl]-3,4-dihydro-2H-pyrrole] | – | – | 4.88 | – | – | – | – | –
CC(=O)NC(CCC(=O)c1c(F)cccc1F)c1ccc(Br)cc1F (centres unmarked) [N-[1-(4-bromo-2-fluorophenyl)-4-(2,6-difluorophenyl)-4-oxobutyl]acetamide] | – | – | 2.74 | – | – | – | – | –
CC(=O)NC(CCC(=O)c1ccccc1C)c1ccc(Br)cc1 (centres unmarked) [N-[1-(4-bromophenyl)-4-(2-methylphenyl)-4-oxobutyl]acetamnide] | – | – | 3.33 | – | – | – | – | –
O=C(c1c(F)cccc1F)C1CC1c1ccc(Br)cc1F (centres unmarked) [[2-(4-bromo-2-fluorophenyl)cyclopropyl](2,6-difluorophenyl)methanone] | – | – | 4.31 | – | – | – | – | –
